Test results as given in patent US20080153896A1, “Polymorphic Forms of an HMG-CoA Reductase Inhibitor and Uses Thereof” (priority 2006, published 2008).

Experiment: Stability (integrity) testing of amorphous and polymorphic form under storage conditions, RP-HPLC
Assay type: physicochemical
Parameters: Impurity RRT 1.104 / Impurity RRT 1.698: unit not given beside the values
Outline: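 Amorphous form and three batches of polymorphic Form I of the hemi calcium salt were stored under different atmospheric conditions. Purity measured by RP-HPLC on C18 with UV detection, drug as percent of total absorption; total impurity from summed impurity peak areas, impurities identified by relative retention time.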

[1] = 25° C./60% RH 3M, hemi calcium salt
[2] = 25° C./60% RH 9M, hemi calcium salt

CC(C)c1c(C(=O)Nc2ccc(CO)cc2)c(-c2ccccc2)c(-c2ccc(F)cc2)n1CC[C@@H](O)C[C@@H](O)CC(=O)[O-].CC(C)c1c(C(=O)Nc2ccc(CO)cc2)c(-c2ccccc2)c(-c2ccc(F)cc2)n1CC[C@@H](O)C[C@@H](O)CC(=O)[O-].[Ca+2] [PP00105, (3R, 5R)-7-[2-(4-fluorophenyl)-5-isopropyl-3-phenyl-4-[(4-hydroxymethylphenylamino)carbonyl]-pyrrol-1-yl]-3,5-dihydroxy-heptanoic acid, hemi calcium salt]
Impurity RRT 0.935 (5° C. 6M, hemi calcium salt): 0.373 | Impurity RRT 1.045 (5° C. 6M, hemi calcium salt): 0.438 | Impurity RRT 1.640 (5° C. 6M, hemi calcium salt): 0.048 | Total Impurity (5° C. 6M, hemi calcium salt): 1.627 | Description (5° C. 9M): White | Impurity RRT 0.138 (5° C. 9M): 0.228 | Impurity RRT 1.096 (5° C. 9M): 0.205 | Impurity RRT 1.439 (5° C. 9M): 0.188 | Impurity RRT 1.596 (5° C. 9M): 0.061 | Impurity RRT 1.698 (5° C. 9M): 0.082 | Assay (5° C. 9M, hemi calcium salt): 97.96 % W/W | Highest Impurity (5° C. 9M, hemi calcium salt): 0.400 | Impurity RRT 0.935 (5° C. 9M, hemi calcium salt): 0.366 | Impurity RRT 1.045 (5° C. 9M, hemi calcium salt): 0.400 | Impurity RRT 1.640 (5° C. 9M, hemi calcium salt): 0.056 | Total Impurity (5° C. 9M, hemi calcium salt): 1.586 | Water (5° C. 9M, hemi calcium salt): 4.64 % W/W | Description (5° C. 12M): White | Impurity RRT 0.138 (5° C. 12M): 0.259 | Impurity RRT 1.096 (5° C. 12M): 0.208 | Impurity RRT 1.183 (5° C. 12M): 0.033 | Impurity RRT 1.439 (5° C. 12M): 0.141 | Impurity RRT 1.596 (5° C. 12M): 0.053 | Impurity RRT 1.698 (5° C. 12M): 0.045 | Assay (5° C. 12M, hemi calcium salt): 98.27 % W/W | Highest Impurity (5° C. 12M, hemi calcium salt): 0.412 | Impurity RRT 0.935 (5° C. 12M, hemi calcium salt): 0.392 | Impurity RRT 1.045 (5° C. 12M, hemi calcium salt): 0.412 | Impurity RRT 1.640 (5° C. 12M, hemi calcium salt): 0.050 | Total Impurity (5° C. 12M, hemi calcium salt): 1.593 | Water (5° C. 12M, hemi calcium salt): 5.03 % W/W | Description (25° C./60% RH 3M): White | Impurity RRT 1.096 (25° C./60% RH 3M): 0.214 | Impurity RRT 1.439 (25° C./60% RH 3M): 0.158 | Impurity RRT 1.596 (25° C./60% RH 3M): 0.067 | Impurity RRT 1.698 (25° C./60% RH 3M): 0.065 | Assay [1]: 98.15 % W/W | Highest Impurity [1]: 0.427 | Impurity RRT 0.935 [1]: 0.383 | Impurity RRT 1.045 [1]: 0.427 | Impurity RRT 1.64 [1]: 0.051 | Total Impurity [1]: 1.37 | Water [1]: 4.74 % W/W | Assay (25° C./60% RH 6M): 98.15 % W/W | Description (25° C./60% RH 6M): White | Highest Impurity (25° C./60% RH 6M): 0.405 | Impurity RRT 0.138 (25° C./60% RH 6M): 0.113 | Impurity RRT 0.935 (25° C./60% RH 6M): 0.338 | Impurity RRT 1.045 (25° C./60% RH 6M): 0.405 | Impurity RRT 1.096 (25° C./60% RH 6M): 0.233 | Impurity RRT 1.439 (25° C./60% RH 6M): 0.142 | Impurity RRT 1.596 (25° C./60% RH 6M): 0.066 | Impurity RRT 1.640 (25° C./60% RH 6M): 0.035 | Impurity RRT 1.698 (25° C./60% RH 6M): 0.056 | Total Impurity (25° C./60% RH 6M): 1.388 | Water (25° C./60% RH 6M): 5.04 % W/W | Description (25° C./60% RH 9M): White | Impurity RRT 0.138 (25° C./60% RH 9M): 0.111 | Impurity RRT 1.096 (25° C./60% RH 9M): 0.212 | Impurity RRT 1.183 (25° C./60% RH 9M): 0.039 | Impurity RRT 1.439 (25° C./60% RH 9M): 0.155 | Impurity RRT 1.596 (25° C./60% RH 9M): 0.042 | Impurity RRT 1.698 (25° C./60% RH 9M): 0.063 | Assay [2]: 98.06 % W/W | Highest Impurity [2]: 0.389 | Impurity RRT 0.935 [2]: 0.375 | Impurity RRT 1.045 [2]: 0.389 | Impurity RRT 1.640 [2]: 0.045 | Total Impurity [2]: 1.431 | Water [2]: 5.31 % W/W | Description (25° C./60% RH 12M): White | Impurity RRT 0.138 (25° C./60% RH 12M): 0.199 | Impurity RRT 1.096 (25° C./60% RH 12M): 0.212 | Impurity RRT 1.183 (25° C./60% RH 12M): 0.036
